# In patent publication US3941790A, “Bis diketopiperazines” (National Research Development Corporation, priority 1967, dated 1976):
# What was measured:
# [1] = system: secondary mouse fibroblast cultures; assay: inhibition of 3H-thymidine incorporation (rate of DNA synthesis) in mammalian cell cultures; format: cell-based; settings: 22 hours incubation; for inhibition at 3 µg/mL: 3 μg./ml.; for inhibition at 1 µg/mL: 1 μg./ml.; for inhibition at 200 µg/mL: 200 μg./ml.; for inhibition at 0.3 µg/mL: 0.3 μg./ml.
# Experimental: The overall effects of various compounds on the rate of synthesis of DNA is mammalian cell cultures are determined with the method of Birnie and Simons (Experimental Cell Research, 1967, 46, 355) by measuring the changes in the amount of ^3 H-thymidine incorporated in 1 hour by secondary mouse fibroblast cultures which have been incubated with a particular compound for 22 hours.
# Typical results illustrating the degree of inhibition of ^3 H-thymidine incorporation for the treated fibroblasts as compared with untreated fibroblasts are given in Table I. The results obtained can be regarded as a measure of cytotoxicity and correlate well with results obtained with implanted tumors in mice.
# [2] = system: tumours and other forms of cancer; assay: anti-cancer / biological activity, general statement; settings: for biological activity of d and l forms compared with racemic dl mixture: each substantially free from the other and from the dl form
# leukemia L1210 [3] = assay: leukemia L1210 implanted mice, survival time; format: in vivo; settings: for Treated/Control value of survival time, L1210: similar to (ii)
# Experimental: Mice implanted with leukemia L1210 are treated as described above with 30 mg. of active substance per kilo for a continuing period until all the animals succumb.
# Sarcoma 180 (S180) = assay: implanted tumor Sarcoma 180, mean tumor weight; format: in vivo, mice
# Experimental: (§1) ii. Mice having implanted tumors Sarcoma 180 and Adenocarcinoma 755, and rats having the implanted tumor Walker 256, are treated with 1,2-bis(3,5-dioxopiperazin-1-yl) ethane. The compound is administered by intraperitoneal injection of a suspension of the substance in isotonic saline containing 1/2% (w/v) carboxymethyl cellulose. The mice are dosed with 30 mg. of active substance per kilo daily for 5 out of 8 days, and their tumors are exercised and weighed. The rats are given one dose only of 400 mg. per kilo and maintained without further treatment for 8 days when their tumors are also removed and weighed. Compared with control animals typical Treated/Control values of mean tumor weight for the S180 and Ca 755 tumors are in the range of 5-10%, and for the Walker tumors of the order of 20%.
# iii. In tests with tumor S180 similar to those described under (ii) typical Treated/Control values of mean tumor weight for dl-1,2-bis(3,5-dioxopiperazin-1-yl) butane and meso-2,3-bis(3,5-dioxopiperazin-1-yl) butane are 84% at 30 mg./Kg. and 22% at 0.25 mg./Kg. respectively.
# physchem = settings: water
# From the text: Although the invention is restricted to one stereoisomeric form as far as certain compounds are concerned, others can exist in different stereoisomeric forms, thus the cyclo-butane analogue (I,R1 R2 = C2 H4) can exist in a trans form and also a cis form.
# leukemia L1210 [4] = assay: leukemia L1210 ascites cells injected intraperitoneally, survival and non-takes (Table II); format: in vivo, mice; settings: daily i.p. 40 mg./Kg.; for Non-takes: groups of 10 mice, 10% DMSO control 1/10; for Mean survival days: 10% DMSO control 10.1; for Survival days: individual mice
# Experimental: v. A suspension of leukaemic cells from DBA2 mice heavily infected with leukemia L1210 is obtained by removing ascites from the peritoneal cavity. The ascitic fluid is diluted in saline and injected intraperitoneally at a level of 10^6 cell into groups of BDFi females.
# Stock solutions of each of the dl, d and l isomers of 1,2-bis(3,5-dioxopiperaxin-1-yl)propane in dimethylsulphoxide (DMSO) are prepared and kept frozen. The solutions are thawed each morning and an aliquot diluted 10-fold with saline. Daily intraperitoneal injections of the three diluted solutions into groups of 10 mice are started on the day after innoculation of the leukaemic cells at a daily dosage level of 40 mg./Kg. (equivalent to 0.5 to 1.0 ml of solution per injection). A control group of mice is injected daily with a similar volume of 10% DMSO in saline.
# In general, the deaths of mice in any group occur within a few days of each other. If one or more members of a group survive 5 days longer than any other of their companions, injections are stopped and if these mice survive a further 5 days they are classed as failures of transplantation. This is merely an objective criterion of a situation which is visually obvious; the "non-Takes" typically looking sleek and healthy and having no tumor at the inoculation site nor having their bellies swollen with ascitic fluid.
# [5] = system: Adenocarcinoma 755 (Ca 755); assay: implanted tumor Adenocarcinoma 755, mean tumor weight; format: in vivo; settings: mice, i.p., 30 mg. per kilo daily for 5 out of 8 days
# Experimental: as §1
# Walker 256 = assay: implanted tumor Walker 256, mean tumor weight; format: in vivo; settings: rats, i.p., one dose of 400 mg. per kilo, 8 days
# Experimental: as §1
# [6] = system: lymphosarcomas, fibrosarcomas, carcinomas, lymphoblastic leukemias and Hodgkin's disease; assay: trials in human patients with various forms of cancer; format: in vivo; settings: some previously treated unsuccessfully with other drugs or radiotherapy
# [7] = stability of aqueous salt solutions; format: physicochemical; settings: acid solution plus disodium hydrogen phosphate, pH 5.7; injection within 1 hour of preparation recommended
# Experimental: When the compounds are to be formulated as salts, preferred formulations are prepared with methane sulphonic acid, isethionic acid, tartaric acid and other solubilizing acids. Salts thus formed are frequently difficult to isolate in view of the weak basicity of some of the parent compounds but their aqueous solutions, after adjustment to physiologically acceptable pH with buffers, are stable for extended periods of time. Solutions of similar strength, i.e., 0.5% (w/v), are also obtainable with hydrochloric acid.
# iv. The product of Example 2 (0.548 g.) is added to 5 ml. of a 0.4N solution of (1) hydrochloric acid, (2) isethionic acid, (3) methane sulphonic acid, or (4) tartaric acid, and the mixture is made up to 100 ml. by the addition of water. The solution so obtained is added to an aqueous solution of disodium hydrogen phosphate (0.2M, 10 ml.) to provide a stable solution having a pH of 5.7. Injection of the solution within 1 hour of preparation is recommended.
# leukemia L1210 [8] = assay: inter-cerebrally implanted leukemia L1210; format: in vivo
# [9] = survival and weight gain of treated S180 tumor-bearing mice; format: in vivo; settings: fed at 30 mg./Kg. on 5 out of 8 days
# metastases = assay: inhibition of metastases; settings: in vivo
smiles,measurement,setting,value
"O=C1CN([C@@H]2CC[C@H]2N2CC(=O)NC(=O)C2)CC(=O)N1 (relative stereo) [trans-1,2-bis(3,5-Dioxopiperazin-1-yl)cyclobutane]",inhibition at 3 µg/mL,[1],22%
same,inhibition at 67 µg/mL,[1]; 67 μg./ml.,60%
"C[C@H]([C@H](C)N1CC(=O)NC(=O)C1)N1CC(=O)NC(=O)C1 [meso-2,3-bis(3,5-Dioxopiperazin-1-yl)butane]","anti-cancer activity, in words",[2],significant activity
same,inhibition at 0.002 µg/mL,[1]; 0.002 μg./ml.,19%
same,inhibition at 0.01 µg/mL,[1]; 0.01 μg./ml.,72%
same,inhibition at 1 µg/mL,[1],78%
same,"Treated/Control value of survival time, L1210",leukemia L1210 [3]; 0.25 mg./Kg.,165%
same,"Treated/Control value of mean tumor weight, S180","Sarcoma 180 (S180); 0.25 mg./Kg., similar to (ii)",22%
"C[C@H](CN1CC(=O)NC(=O)C1)N1CC(=O)NC(=O)C1 [l-1,2-bis(3,5-Dioxopiperazin-1-yl)propane]",biological activity of d and l forms compared with racemic dl mixture,[2],no substantial difference in biological activity
same,solubility,physchem,~11000 µg/mL
same,inhibition at 1 µg/mL,[1],52%
same,inhibition at 200 µg/mL,[1],72%
same,% Increase of survival time over controls,leukemia L1210 [4],99%
same,Non-takes,leukemia L1210 [4],0/10
same,Mean survival days,leukemia L1210 [4],20.1 days
same,Survival days,leukemia L1210 [4]; listed as l-,26 days
"C[C@H]([C@@H](C)N1CC(=O)NC(=O)C1)N1CC(=O)NC(=O)C1 (relative stereo) [dl-2,3-bis(3,5-dioxopiperazin-1-yl)butane, reference compound]","anti-cancer activity, in words",[2],essentially inactive
same,inhibition at 3 µg/mL,[1],3%
same,inhibition at 13 µg/mL,[1]; 13 μg./ml.,26%
same,"Treated/Control value of survival time, L1210",leukemia L1210 [3]; 30 mg./Kg.,80%
same,"Treated/Control value of mean tumor weight, S180","Sarcoma 180 (S180); 30 mg./Kg., similar to (ii)",84%
"O=C1CN(CCN2CC(=O)NC(=O)C2)CC(=O)N1 [1,2-bis(3,5-dioxopiperazin-1-yl)ethane, 1,2-bis(3,5-Dioxopiperazin-1-yl)ethane]","Treated/Control value of mean tumor weight, Ca 755",[5],5-10%
same,inhibition at 0.3 µg/mL,[1],21%
same,inhibition at 8 µg/mL,[1]; 8 μg./ml.,69%
same,"Treated/Control value of mean tumor weight, S180","Sarcoma 180 (S180); mice, i.p., 30 mg. per kilo daily for 5 out of 8 days",5-10%
same,"Treated/Control value of mean tumor weight, Walker",Walker 256,~20%
"CC(CN1CC(=O)NC(=O)C1)N1CC(=O)NC(=O)C1 (racemic) [dl-1,2-bis(3,5-Dioxopiperazin-1-yl)propane]",regression and palliation of cancers in patients,[6],significant regression and palliation of the cancers
same,stability of solution,[7],stable
same,solubility,physchem,~1000 µg/mL
same,effectiveness against inter-cerebrally implanted leukemia L1210,leukemia L1210 [8]; in vivo,effective
same,ability to cross the blood-brain barrier,leukemia L1210 [8]; indicated by effect on inter-cerebrally implanted L1210,indicative of the ability of the compound to cross the blood-brain barrier
same,inhibition at 0.3 µg/mL,[1],15%
same,inhibition at 1 µg/mL,[1],48%
same,inhibition at 5 µg/mL,[1]; 5 μg./ml.,63%
same,"Treated/Control value for survival time, L1210","leukemia L1210 [3]; intraperitoneal, 30 mg./Kg. daily until death",257%
same,"Treated/Control value for survival time, L1210","leukemia L1210 [3]; orally, 75 mg./Kg.",157%
same,"Treated/Control value for survival time, L1210","leukemia L1210 [3]; subcutaneous, 30 mg./Kg. daily until death",223%
same,"Treated/Control value for mean tumor weight, S180","Sarcoma 180 (S180); mice, fed at 30 mg./Kg. on 5 out of 8 days",7%
same,survival of animals,[9],all the animals surviving
same,weight gain,[9]; controls 29%,12%
same,% Increase of survival time over controls,leukemia L1210 [4],86%
same,Non-takes,leukemia L1210 [4],0/10
same,Mean survival days,leukemia L1210 [4],18.8 days
same,Survival days,leukemia L1210 [4]; listed as dl-,25 days
"CC(CN1CC(=O)NC(=O)C1)N1CC(=O)NC(=O)C1 (centres unmarked) [1,2-bis(3,5-dioxopiperazin-1-yl)propane]",inhibition of metastases,metastases,marked degree of inhibition of metastases
"C[C@@H](CN1CC(=O)NC(=O)C1)N1CC(=O)NC(=O)C1 [d-1,2-bis(3,5-Dioxopiperazin-1-yl)propane]",biological activity of d and l forms compared with racemic dl mixture,[2],no substantial difference in biological activity
same,inhibition at 1 µg/mL,[1],44%
same,inhibition at 200 µg/mL,[1],74%
same,% Increase of survival time over controls,leukemia L1210 [4],93%
same,Non-takes,leukemia L1210 [4],0/10
same,Mean survival days,leukemia L1210 [4],19.5 days
same,Survival days,leukemia L1210 [4]; listed as d-,26 days
"O=C(O)CN(CCN(CC(=O)O)CC(=O)O)CC(=O)O [ethylene diamine tetra-acetic acid, reference compound]","anti-cancer activity, in words",[2],lack of activity
